Data from US20260184691A1, “INHIBITORS AND DEGRADERS OF PIP4K PROTEIN” (Larkspur Biosciences, Inc., priority 2022, published 2026).

Target: T1, endogenous PIP4K2C C-terminally tagged with HiBiT peptide in MOLT-4 cells (Homo sapiens, UniProt Q8TBX8)
T1 construct: to C-terminally tag endogenous PIP4K2C with HiBiT peptide; host or cells: MOLT-4 (CRISPR-Cas9 knock-in clone)
T1 sequence (Q8TBX8 1-421): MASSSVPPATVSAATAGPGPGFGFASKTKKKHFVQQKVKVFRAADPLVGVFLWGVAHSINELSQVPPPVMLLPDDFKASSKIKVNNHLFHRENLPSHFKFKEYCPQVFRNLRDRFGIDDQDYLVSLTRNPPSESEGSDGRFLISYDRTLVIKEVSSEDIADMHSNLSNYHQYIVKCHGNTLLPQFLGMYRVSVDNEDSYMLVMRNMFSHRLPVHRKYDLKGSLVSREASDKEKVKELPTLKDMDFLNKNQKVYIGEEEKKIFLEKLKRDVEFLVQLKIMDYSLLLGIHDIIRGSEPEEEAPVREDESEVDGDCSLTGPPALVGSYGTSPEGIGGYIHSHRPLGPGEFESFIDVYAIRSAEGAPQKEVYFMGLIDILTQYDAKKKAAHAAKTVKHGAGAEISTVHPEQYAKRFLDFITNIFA
Assay: HiBiT PIP4K2C degradation assay in MOLT-4 cells
Type: cell-based
Details: 24 hours, 10-point dose response, top concentration 10 micromolar, read-out: HiBIT-degradation MOLT4 PIP4k2C 24 hours DC50
Outline: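 Cells bearing C-terminal HiBiT knock-in were exposed to a 10-point, 3-fold dilution series (top 10 micromolar, duplicate) for 24 h at 37C, 5% CO2. Remaining tagged protein read by lytic HiBiT luminescence; DC50 from Hill-equation fit.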

O=C1CCC(Nc2ccc(C3CCN(CC(=O)N4CCC5(CC4)CCN(c4cncc(Nc6ncc(Cl)c(N7CCC[C@@H](C(F)(F)F)C7)n6)c4)C5=O)CC3)cc2)C(=O)N1 (stereo partly drawn) [Compound 171, 3-((4-(1-(2-(2-(5-((5-chloro-4-((R)-3-(trifluoromethyl)piperidin-1-yl)pyrimidin-2-yl)amino)pyridin-3-yl)-1-oxo-2,8-diazaspiro[4.5]decan-8-yl)-2-oxoethyl)piperidin-4-yl)phenyl)amino)piperidine-2,6-dione] and O=C1CCC(Nc2ccc(C3CCN(CC(=O)N4CCC5(CC4)CCN(c4cncc(Nc6ncc(Cl)c(N7CCC[C@H](O)C7)n6)c4)C5=O)CC3)cc2)C(=O)N1 (stereo partly drawn) [Compound 169, 3-((4-(1-(2-(2-(5-((5-chloro-4-((S)-3-hydroxypiperidin-1-yl)pyrimidin-2-yl)amino)pyridin-3-yl)-1-oxo-2,8-diazaspiro[4.5]decan-8-yl)-2-oxoethyl)piperidin-4-yl)phenyl)amino)piperidine-2,6-dione] cannot be ordered by DC50: under 500 nM for the first, under 500 nM for the second.

O=C1CCC(Nc2ccc(N3CCC(CC(=O)N4CCC5(CC4)CCN(c4cncc(Nc6ncc(Cl)c(N7CCC[C@H](O)C7)n6)c4)C5=O)CC3)cc2)C(=O)N1 (stereo partly drawn) [Compound 175, 3-((4-(4-(2-(2-(5-((5-chloro-4-((S)-3-hydroxypiperidin-1-yl)pyrimidin-2-yl)amino)pyridin-3-yl)-1-oxo-2,8-diazaspiro[4.5]decan-8-yl)-2-oxoethyl)piperidin-1-yl)phenyl)amino)piperidine-2,6-dione] and O=C1CCC(Nc2ccc(N3CCC(CN4CCC5(CC4)CCN(c4cncc(Nc6ncc(Cl)c(N7CCCC(C8CC8)C7)n6)c4)C5=O)CC3)cc2)C(=O)N1 (stereo not drawn) [Compound 212, 3-((4-(4-((2-(5-((5-chloro-4-(3-cyclopropylpiperidin-1-yl)pyrimidin-2-yl)amino)pyridin-3-yl)-1-oxo-2,8-diazaspiro[4.5]decan-8-yl)methyl)piperidin-1-yl)phenyl)amino)piperidine-2,6-dione] cannot be ordered by DC50: under 500 nM for the first, under 500 nM for the second.

Cn1c(=O)n(C2CCC(=O)NC2=O)c2ccc(C3CCN(CC(=O)N4CCC(C(=O)Nc5cncc(Nc6ncc(Cl)c(-c7cccc(C8CC8)c7)n6)c5)CC4)CC3)cc21 (stereo not drawn) [Compound 210, N-(5-((5-chloro-4-(3-cyclopropylphenyl)pyrimidin-2-yl)amino)pyridin-3-yl)-1-(2-(4-(1-(2,6-dioxopiperidin-3-yl)-3-methyl-2-oxo-2,3-dihydro-1H-benzo[d]imidazol-5-yl)piperidin-1-yl)acetyl)piperidine-4-carboxamide] and O=C1CCC(N2Cc3cc(C4CCN(CC(=O)N5CCC6(CC5)CCN(c5cncc(Nc7ncc(Cl)c(-c8cccc(C9CC9)c8)n7)c5)C6=O)CC4)ccc3C2=O)C(=O)N1 (stereo not drawn) [Compound 207, 3-(5-(1-(2-(2-(5-((5-chloro-4-(3-cyclopropylphenyl)pyrimidin-2-yl)amino)pyridin-3-yl)-1-oxo-2,8-diazaspiro[4.5]decan-8-yl)-2-oxoethyl)piperidin-4-yl)-1-oxoisoindolin-2-yl)piperidine-2,6-dione] cannot be ordered by DC50: under 500 nM for the first, under 500 nM for the second.

O=C1CCC(Nc2ccc(N3CCC(CC(=O)N4CCC5(CC4)CCN(c4cncc(Nc6ncc(Cl)c(-c7cccc(N8CCCCC8)c7)n6)c4)C5=O)CC3)cc2)C(=O)N1 (stereo not drawn) [Compound 182, 3-((4-(4-(2-(2-(5-((5-chloro-4-(3-(piperidin-1-yl)phenyl)pyrimidin-2-yl)amino)pyridin-3-yl)-1-oxo-2,8-diazaspiro[4.5]decan-8-yl)-2-oxoethyl)piperidin-1-yl)phenyl)amino)piperidine-2,6-dione] and O=C1CCC(Nc2ccc(N3CCC(CC(=O)N4CCC5(CC4)CCN(c4cncc(Nc6ncc(Cl)c(-c7cccc(C8CCCC8)c7)n6)c4)C5=O)CC3)cc2)C(=O)N1 (stereo not drawn) [Compound 191, 3-((4-(4-(2-(2-(5-((5-chloro-4-(3-cyclopentylphenyl)pyrimidin-2-yl)amino)pyridin-3-yl)-1-oxo-2,8-diazaspiro[4.5]decan-8-yl)-2-oxoethyl)piperidin-1-yl)phenyl)amino)piperidine-2,6-dione] cannot be ordered by DC50: under 500 nM for the first, under 500 nM for the second.

O=C1CCC(N2C(=O)c3cccc(OCCCN4CCN(CCCCCCCC(=O)Nc5cncc(Nc6ncc(Cl)c(-c7cccc(-c8ccccc8)c7)n6)c5)CC4)c3C2=O)C(=O)N1 (stereo not drawn) [Compound 67, N-(5-((4-([1,1′-biphenyl]-3-yl)-5-chloropyrimidin-2-yl)amino)pyridin-3-yl)-8-(4-(3-((2-(2,6-dioxopiperidin-3-yl)-1,3-dioxoisoindolin-4-yl)oxy)propyl)piperazin-1-yl)octanamide] and O=C1CCC(N2C(=O)c3cccc(OCCCN4CCN(CCCCCC(=O)Nc5cncc(Nc6ncc(Cl)c(-c7cccc(-c8ccccc8)c7)n6)c5)CC4)c3C2=O)C(=O)N1 (stereo not drawn) [Compound 68, N-(5-((4-([1,1′-biphenyl]-3-yl)-5-chloropyrimidin-2-yl)amino)pyridin-3-yl)-6-(4-(3-((2-(2,6-dioxopiperidin-3-yl)-1,3-dioxoisoindolin-4-yl)oxy)propyl)piperazin-1-yl)hexanamide] cannot be ordered by DC50: under 500 nM for the first, under 500 nM for the second.

O=C1CCC(Nc2ccc(C3CCN(CC(=O)N4CCC5(CC4)CCN(c4cncc(Nc6ncc(Cl)c(-c7cccc(C8CCCCC8)c7)n6)c4)C5=O)CC3)cc2)C(=O)N1 (stereo not drawn) [Compound 190, 3-((4-(1-(2-(2-(5-((5-chloro-4-(3-cyclohexylphenyl)pyrimidin-2-yl)amino)pyridin-3-yl)-1-oxo-2,8-diazaspiro[4.5]decan-8-yl)-2-oxoethyl)piperidin-4-yl)phenyl)amino)piperidine-2,6-dione] and CN1CCC(n2cc(-c3nc(Nc4cncc(N5CCC6(CCN(C(=O)CN7CCC(c8ccc(NC9CCC(=O)NC9=O)cc8)CC7)CC6)C5=O)c4)ncc3Cl)cn2)CC1 (stereo not drawn) [Compound 194, 3-((4-(1-(2-(2-(5-((5-chloro-4-(1-(1-methylpiperidin-4-yl)-1H-pyrazol-4-yl)pyrimidin-2-yl)amino)pyridin-3-yl)-1-oxo-2,8-diazaspiro[4.5]decan-8-yl)-2-oxoethyl)piperidin-4-yl)phenyl)amino)piperidine-2,6-dione] cannot be ordered by DC50: under 500 nM for the first, under 500 nM for the second.

Compared with O=C(CCOc1cccc2c1C(=O)N(C1CCC(=O)NC1=O)C2=O)NCCCCCCCCC(=O)Nc1cncc(Nc2ncc(Cl)c(-c3cccc(-c4ccccc4)c3)n2)c1 (stereo not drawn) [Compound 89, N-(5-((4-([1,1′-biphenyl]-3-yl)-5-chloropyrimidin-2-yl)amino)pyridin-3-yl)-9-(3-((2-(2,6-dioxopiperidin-3-yl)-1,3-dioxoisoindolin-4-yl)oxy)propanamido)nonanamide], O=C1CCC(N2C(=O)c3cccc(OCCCCCCCCC(=O)N4CCC5(CC4)CCN(c4cncc(Nc6ncc(Cl)c(-c7cccc(-c8ccccc8)c7)n6)c4)C5=O)c3C2=O)C(=O)N1 (stereo not drawn) [Compound 78, 4-((9-(2-(5-((4-([1,1′-biphenyl]-3-yl)-5-chloropyrimidin-2-yl)amino)pyridin-3-yl)-1-oxo-2,8-diazaspiro[4.5]decan-8-yl)-9-oxononyl)oxy)-2-(2,6-dioxopiperidin-3-yl)isoindoline-1,3-dione] is higher in DC50: under 500 nM for the first, 500 to 1000 nM for the second.

O=C1CCC(N2Cc3c(OCCCCCCCCCC(=O)N4CCC5(CC4)CCN(c4cncc(Nc6ncc(Cl)c(-c7cccc(-c8ccccc8)c7)n6)c4)C5=O)cccc3C2=O)C(=O)N1 (stereo not drawn) [Compound 69, 3-(4-((10-(2-(5-((4-([1,1′-biphenyl]-3-yl)-5-chloropyrimidin-2-yl)amino)pyridin-3-yl)-1-oxo-2,8-diazaspiro[4.5]decan-8-yl)-10-oxodecyl)oxy)-1-oxoisoindolin-2-yl)piperidine-2,6-dione] and O=C1CCC(N2Cc3cc(OCCCCCCCCCC(=O)N4CCC5(CC4)CCN(c4cncc(Nc6ncc(Cl)c(-c7cccc(-c8ccccc8)c7)n6)c4)C5=O)ccc3C2=O)C(=O)N1 (stereo not drawn) [Compound 61, 3-(5-((10-(2-(5-((4-([1,1′-biphenyl]-3-yl)-5-chloropyrimidin-2-yl)amino)pyridin-3-yl)-1-oxo-2,8-diazaspiro[4.5]decan-8-yl)-10-oxodecyl)oxy)-1-oxoisoindolin-2-yl)piperidine-2,6-dione] cannot be ordered by DC50: under 500 nM for the first, under 500 nM for the second.

O=C1CCC(N2C(=O)c3ccc(OCCCCCCCCC(=O)N4CCC5(CC4)CCN(c4cncc(Nc6ncc(Cl)c(-c7cccc(-c8ccccc8)c7)n6)c4)C5=O)cc3C2=O)C(=O)N1 (stereo not drawn) [Compound 72, 5-((9-(2-(5-((4-([1,1′-biphenyl]-3-yl)-5-chloropyrimidin-2-yl)amino)pyridin-3-yl)-1-oxo-2,8-diazaspiro[4.5]decan-8-yl)-9-oxononyl)oxy)-2-(2,6-dioxopiperidin-3-yl)isoindoline-1,3-dione] and O=C1CCC(N2Cc3cc(OCCCCCCCCN4CCC5(CC4)CCN(c4cncc(Nc6ncc(Cl)c(-c7cccc(-c8ccccc8)c7)n6)c4)C5=O)ccc3C2=O)C(=O)N1 (stereo not drawn) [Compound 56, 3-(5-((8-(2-(5-((4-([1,1′-biphenyl]-3-yl)-5-chloropyrimidin-2-yl)amino)pyridin-3-yl)-1-oxo-2,8-diazaspiro[4.5]decan-8-yl)octyl)oxy)-1-oxoisoindolin-2-yl)piperidine-2,6-dione] cannot be ordered by DC50: under 500 nM for the first, under 500 nM for the second.
